Drawing on ChEMBL document CHEMBL4680364, “Substituted Chromen-4-one Derivatives for Treating Hepatitis B Virus Infection” (ACS Med Chem Lett, 2021), this text covers IC50 for six molecules.

In general, IC50 refers to the midpoint of a concentration-inhibition curve.

The test system of this assay is Hepatitis B virus. The experiment in a line: Antiviral activity against HBV in human HepDE19 cells producing HBV cccDNA assessed as reduction in cccDNA production by measuring HBeAg level incubated for 24 hrs by ELISA. To be noted: HepDE19, 24 h. The class given is functional, organism-based. Background: In an ELISA, binding on a coated surface is turned into a signal by an enzyme label.
As for `COc1c(-c2cc(=O)c3cccc(Cl)c3o2)ccc(Br)c1OC1CC(C(=O)O)C1` (stereo unspecified), the IC50 was 190 nM.
In the case of `O=C(O)COc1cc(-c2cc(=O)c3cccc(Cl)c3o2)ccc1C(F)(F)F` it was 320 nM; in that of `O=C(O)CCOc1cc(-c2cc(=O)c3cccc(Cl)c3o2)c(F)cc1Br`, 133 nM; in that of `CCOc1cc(Br)c(OCCC(=O)O)cc1-c1cc(=O)c2cccc(Cl)c2o1`, 110 nM.
Next, `Cc1ccc(-c2cc(=O)c3cccc(Cl)c3o2)cc1O[C@H]1C[C@@H](C(=O)O)C1`: 490 nM; `COc1cc(OC)c(-c2cc(=O)c3cccc(Cl)c3o2)cc1OCCOC1CC(C(=O)O)C1` (stereo unspecified): 190 nM.
